From patent US7960398B2, “Regulation of TNF-alpha” (Vertex Pharmaceuticals Incorporated, priority 2002, dated 2011)

System: TNF-alpha
Experiment: Inhibition of TNF Release From Whole Blood
Type: cell-based
Conditions: human whole blood diluted 1:2 in PBS, LPS 5 ng/ml, incubated at 37° C. overnight, TNF-alpha in supernatants by ELISA
Description: Human blood was freshly drawn from healthy donors and collected in vacutainers. Blood was diluted 1:2 in PBS (tissue culture, pyrogen free) in a sterile bottle and inverted to mix well. Aliquots of 0.5 ml of blood mixture were dispensed into cluster tubes in 96 well format.
Dilutions of the test compounds were prepared in RPMI by taking 100 mM DMSO stocks of the compounds and diluting 1:10 in RPMI medium in eppendorfs, to give a 10 mM stock. 1:5 serial dilutions were prepared from the stock solutions.
LPS was kept at a frozen stock (−20 degrees C.) at 1 mg/ml in PBS and then diluted to 1:10 with RPMI medium and finally diluted in the medium again 1:350. 50 μl of each test compound (first concentration was 100 uM) were added to the blood samples and then stimulated with 10 μl LPS (final concentration in the well is 5 ng/ml). The contents were gently mixed using an 8 well multi-channel pipette and incubated at 37° C. overnight. At the end of the incubation time, contents were gently mixed, then spun down at 1000×g for 5 mins at 20° C. The serum supernatants were transferred to a fresh plate without disturbing the RBCs and diluted 1:2 with the diluent RD6C.
TNF-alpha levels of supernatants were assayed using the R+D systems ELISA kit, using R+D systems protocol. Samples were read at 450 nm. The compounds shown in Table 1 were tested in the above assay. In this TNF-alpha assay, category “A” indicates an IC50 value of <500 nM. Category “B” indicates an IC50 value of 500-1000 nM. […] Category “D” indicates an IC50 value of >2000 nM.

Q: With O=C(O)CC(NC(=O)[C@@H]1CCCCN1C(=O)OCc1cc(F)ccc1F)C(=O)CF (stereo partly shown) as the compound, how does the IC50 read?
A: The IC50 was < 500 nM.

Q: O=C(O)CC(NC(=O)[C@@H]1CCCCN1C(=O)O[C@H](c1ccccc1)C(F)(F)F)C(=O)CF (stereo partly shown) [drawing 65] was tested. Which IC50 did it give?
A: Its IC50 is < 500 nM.

Q: For Cc1cccc(COC(=O)N2CCCC[C@H]2C(=O)NC(CC(=O)O)C(=O)CF)c1 (stereo partly shown), which IC50 is on record?
A: Its IC50 is 500 to 1000 nM.

Q: How did the IC50 turn out when CCC[C@@H](C(=O)NC(CC(=O)O)C(=O)CF)n1cnc2ccccc2c1=O (stereo partly shown) was run?
A: Its IC50 is < 500 nM.

Q: With O=C(O)CC(NC(=O)[C@@H]1CCCCN1C(=O)N1c2ccccc2Sc2ccc(Cl)cc21)C(=O)CF (stereo partly shown) as the compound, how does the IC50 read?
A: The IC50 was 500 to 1000 nM.

Q: CC[C@@H](C(=O)NC(CC(=O)O)C(=O)COc1c(F)c(F)cc(F)c1F)n1ccc2ccc(Cl)cc2c1=O (stereo partly shown) was tested. Which IC50 did it give?
A: Its IC50 is 1000 to 2000 nM.

Q: With O=C(O)CC(NC(=O)[C@@H]1CCCCN1C(=O)O[C@H](c1ccccc1)C(F)(F)F)C(=O)CF (stereo partly shown) [drawing 37] as the compound, how does the IC50 read?
A: The IC50 was < 500 nM.

Q: Which IC50 does the source give for CC[C@@H](C(=O)N[C@@H](CC(=O)O)C(=O)COP(=O)(c1ccccc1)c1ccccc1)n1cnc2ccccc2c1=O here?
A: The IC50 was > 2000 nM.

Q: With C[C@H](OC(=O)Nc1ccccc1)C(=O)NC(CC(=O)O)C(=O)CF (stereo partly shown) as the compound, how does the IC50 read?
A: Its IC50 is 500 to 1000 nM.

Q: With CC[C@@H](C(=O)NC(CC(=O)O)C(=O)CF)n1cnc2ccc(Cl)cc2c1=O (stereo partly shown) as the compound, how does the IC50 read?
A: The IC50 was < 500 nM.

Q: With CC[C@@H](C(=O)NC(CC(=O)O)C(=O)CF)n1ccc2ccc(C(F)(F)F)cc2c1=O (stereo partly shown) as the compound, how does the IC50 read?
A: Its IC50 is 500 to 1000 nM.

Q: For CCCSc1ccc2ncn([C@@H](CC)C(=O)NC(CC(=O)O)C(=O)CF)c(=O)c2c1 (stereo partly shown), which IC50 is on record?
A: Its IC50 is < 500 nM.

Q: With CC[C@@H](C(=O)NC(CC(=O)O)C(=O)CF)n1cnc2ccc(Sc3cccc(F)c3)cc2c1=O (stereo partly shown) as the compound, how does the IC50 read?
A: The IC50 was 1000 to 2000 nM.

Q: How did the IC50 turn out when O=C(O)CC(NC(=O)[C@@H]1CCCc2cc3ccccc3c(=O)n21)C(=O)CF (stereo partly shown) was run?
A: Its IC50 is < 500 nM.

Q: With CC[C@@H](C(=O)NC(CC(=O)O)C(=O)CF)n1cnc2ccc(Oc3cccc(F)c3)cc2c1=O (stereo partly shown) as the compound, how does the IC50 read?
A: The IC50 was > 2000 nM.

Q: With O=C(O)CC(NC(=O)[C@@H]1CCCc2nc3ccccc3c(=O)n21)C(=O)CF (stereo partly shown) as the compound, how does the IC50 read?
A: Its IC50 is 500 to 1000 nM.

Q: CC[C@@H](C(=O)NC(CC(=O)O)C(=O)COc1c(F)c(F)cc(F)c1F)n1cnc2ccccc2c1=O (stereo partly shown) was tested. Which IC50 did it give?
A: The IC50 was 1000 to 2000 nM.

Q: O=C(O)CC(NC(=O)[C@@H]1CCCCN1C(=O)c1ccc(-c2cccc(C(F)(F)F)c2)o1)C(=O)CF (stereo partly shown) [drawing 39] was tested. Which IC50 did it give?
A: Its IC50 is > 2000 nM.

Q: Which IC50 does the source give for CC[C@@H](C(=O)NC(CC(=O)O)C(=O)CF)n1cnc2ccc(Oc3ccccc3)cc2c1=O (stereo partly shown) here?
A: The IC50 was 500 to 1000 nM.

Q: For O=C(O)CC(NC(=O)[C@@H]1CCCCN1C(=O)OCc1cc(Cl)cc(Cl)c1)C(=O)CF (stereo partly shown), which IC50 is on record?
A: The IC50 was 1000 to 2000 nM.

Q: CC(C)[C@H](NC(=O)OCc1ccccc1)C(=O)NC(CC(=O)O)C(=O)CF (stereo partly shown) was tested. Which IC50 did it give?
A: Its IC50 is < 500 nM.

Q: For CC[C@@H](C(=O)NC(CC(=O)O)C(=O)CF)n1ccc2ccc(Cl)cc2c1=O (stereo partly shown), which IC50 is on record?
A: The IC50 was < 500 nM.

Q: CC[C@@H](C(=O)NC(CC(=O)O)C(=O)CF)n1cnc2ccc(Oc3ccccc3Cl)cc2c1=O (stereo partly shown) was tested. Which IC50 did it give?
A: The IC50 was > 2000 nM.

Q: CC[C@@H](C(=O)N[C@@H](CC(=O)O)C(=O)COc1c(F)c(F)cc(F)c1F)n1cnc2ccc(Cl)cc2c1=O was tested. Which IC50 did it give?
A: Its IC50 is 1000 to 2000 nM.

Q: How did the IC50 turn out when CC(C)[C@H](OC(=O)n1c2ccccc2c2ccccc21)C(=O)NC(CC(=O)O)C(=O)CF (stereo partly shown) [drawing 36] was run?
A: The IC50 was 1000 to 2000 nM.

Q: With CC(C)[C@H](OC(=O)Nc1ccccc1)C(=O)NC(CC(=O)O)C(=O)CF (stereo partly shown) as the compound, how does the IC50 read?
A: The IC50 was < 500 nM.

Q: How did the IC50 turn out when CC[C@@H](C(=O)N[C@@H](CC(=O)O)C(=O)COc1c(F)c(F)cc(F)c1F)n1ccc2ccccc2c1=O was run?
A: The IC50 was 500 to 1000 nM.

Q: Which IC50 does the source give for CC[C@@H](C(=O)NC(CC(=O)O)C(=O)CF)n1cnc2ccc(Oc3cccc(Cl)c3)cc2c1=O (stereo partly shown) here?
A: The IC50 was > 2000 nM.

Q: Which IC50 does the source give for CCC[C@@H](C(=O)NC(CC(=O)O)C(=O)CF)n1ccc2ccccc2c1=O (stereo partly shown) here?
A: Its IC50 is < 500 nM.

Q: How did the IC50 turn out when O=C(O)CC(NC(=O)[C@@H]1CCCCN1C(=O)OCc1cccc(Cl)c1F)C(=O)CF (stereo partly shown) was run?
A: Its IC50 is < 500 nM.

Q: How did the IC50 turn out when CC(C)[C@H](OC(=O)n1c2ccccc2c2ccccc21)C(=O)NC(CC(=O)O)C(=O)CF (stereo partly shown) [drawing 76] was run?
A: Its IC50 is 1000 to 2000 nM.

Q: How did the IC50 turn out when O=C(O)CC(NC(=O)[C@@H]1CCCCN1C(=O)c1ccc(-c2cccc(C(F)(F)F)c2)o1)C(=O)CF (stereo partly shown) [drawing 78] was run?
A: The IC50 was > 2000 nM.

Q: With CC[C@@H](C(=O)NC(CC(=O)O)C(=O)CF)n1ccc2ccc(-c3ccccc3)cc2c1=O (stereo partly shown) as the compound, how does the IC50 read?
A: Its IC50 is < 500 nM.

Q: For CC[C@H](NC(=O)c1ncc[nH]1)C(=O)NC(CC(=O)O)C(=O)CF (stereo partly shown), which IC50 is on record?
A: The IC50 was < 500 nM.

Q: Which IC50 does the source give for O=C(O)CC(NC(=O)[C@@H]1CCCCN1C(=O)N1c2ccccc2Sc2ccc(C(F)(F)F)cc21)C(=O)CF (stereo partly shown) here?
A: The IC50 was > 2000 nM.

Q: Which IC50 does the source give for O=C(O)CC(NC(=O)[C@@H]1CCCCN1C(=O)c1sc2ccccc2c1Cl)C(=O)CF (stereo partly shown) here?
A: The IC50 was < 500 nM.

Q: With C[C@@H](C(=O)NC(CC(=O)O)C(=O)CF)n1cnc2ccccc2c1=O (stereo partly shown) [drawing 34] as the compound, how does the IC50 read?
A: The IC50 was < 500 nM.

Q: Which IC50 does the source give for CC[C@@H](C(=O)NC(CC(=O)O)C(=O)CF)n1cnc2ccccc2c1=O (stereo partly shown) here?
A: The IC50 was < 500 nM.

Q: With C[C@@H](C(=O)NC(CC(=O)O)C(=O)CF)n1ccc2ccccc2c1=O (stereo partly shown) as the compound, how does the IC50 read?
A: The IC50 was 1000 to 2000 nM.

Q: Cc1c(C(=O)N[C@H](C(=O)NC(CC(=O)O)C(=O)CF)C(C)C)n(C)c2ccccc12 (stereo partly shown) was tested. Which IC50 did it give?
A: Its IC50 is < 500 nM.

Q: For CC(C)[C@@H](C(=O)NC(CC(=O)O)C(=O)CF)n1cnc2ccccc2c1=O (stereo partly shown), which IC50 is on record?
A: The IC50 was 500 to 1000 nM.

Q: O=C(O)C[C@H](NC(=O)[C@@H]1CCCCN1C(=O)OCc1cc(Cl)ccc1F)C(=O)COc1c(F)c(F)cc(F)c1F was tested. Which IC50 did it give?
A: Its IC50 is > 2000 nM.

Q: For Cc1ccccc1COC(=O)N1CCCC[C@H]1C(=O)NC(CC(=O)O)C(=O)CF (stereo partly shown), which IC50 is on record?
A: The IC50 was < 500 nM.

Q: How did the IC50 turn out when O=C(O)CC(NC(=O)[C@@H]1CCCCN1C(=O)OCc1cc(Cl)ccc1F)C(=O)CF (stereo partly shown) [drawing 70] was run?
A: The IC50 was < 500 nM.

Q: How did the IC50 turn out when C[C@@H](C(=O)NC(CC(=O)O)C(=O)CF)n1cnc2ccccc2c1=O (stereo partly shown) [drawing 66] was run?
A: The IC50 was < 500 nM.

Q: With O=C(O)CC(NC(=O)[C@@H]1CCCCN1C(=O)OCc1cc(Cl)ccc1F)C(=O)CF (stereo partly shown) [drawing 40] as the compound, how does the IC50 read?
A: Its IC50 is < 500 nM.
